Test results from patent US11484529B2, “Desmethylanethole trithione derivatives for the treatment of diseases linked to mitochondrial reactive oxygen species (ROS) production” (OP2 Drugs, priority 2017, dated 2022).

Tests used:
[1] = tested on: isolated pancreatic islets from mice; assay: Glucose-stimulated insulin secretion (GSIS) in isolated pancreatic islets; format: cell-based, mouse; details: AOL 10 and 20 μM, 1 hour
Description: Pancreatic islets were isolated using the collagenase digestion method. Briefly, pancreas was inflated with Hanks solution containing 0.33 mg/mL of collagenase (Sigma-Aldrich), 5.6 mM glucose and 1% bovine serum albumin, pH 7.35, removed and kept at 37° C. for 6-9 minutes. After tissue digestion and exocrine removal by three consecutive washes, the islets were manually collected, under a binocular magnifier. Islets were left recovering from digestion by culturing for 20-24 hours in RPMI-1640 medium containing 11 mM glucose (Invitrogen, CA, USA) and supplemented with 2 mM glutamine, 200 IU/mL penicillin, 200 μg/mL streptomycin and 8% fetal bovine serum stripped with charcoal-dextran (Invitrogen).
For each static GSIS experiment, islets from two mice were first incubated for 2 hours at 37° C. in 3 mL Krebs-bicarbonate buffer solution (in mM): […] and 3 glucose, equilibrated with a mixture of 95% 02:5% C02, pH 7.4. […] Insulin secretion in each well was calculated as ng of insulin per islet and per hour of incubation, and then expressed as percentage of insulin secretion in 11 mM glucose vehicle group, which was considered 100%.

[2] = tested on: isolated perfused rat heart; assay: Global ischemia-reperfusion of isolated perfused rat heart (Langendorff); details: 10 μM AOL pretreatment, 30 min ischemia
Description: The consequences of 30 minutes' global ischemia followed by 120 minutes' reperfusion (FIG. 11) on contractility and tissue viability were studied on isolated perfused rat heart pretreated or not (control vehicle) with 10 μM AOL.
All procedures conformed to the UK Animals (Scientific Procedures) Act 1986 and the Guide for the Care and Use of Laboratory Animals published by the National Institutes of Health (NIH Publication No. 85-23. revised 1996). Male Wistar rats (250-300 g) were anesthetized by 3% isoflurane, heparinized and euthanized by a lethal IP injection of pentobarbital (130 mg/kg). […] Langendorff heart perfusions were performed (Garlid et al., 2006. Am. J. Physiol. Heart Circ. Physiol. 291(1):H152-60) and contractility was assessed by continuous measurement of the rate pressure product (RPP) thanks to a balloon placed in the left ventricle and connected to a pressure transducer. […]
At the end of the reperfusion period, hearts were stained with triphenyltetrazolium chloride (TTC): hearts were perfused for 7 minutes at 13 mL/min with a 12% (w/v) TTC solution in order to get a 1% final concentration in the heart. […] The surface of the necrotic and at-risk areas of each side were determined on each photography by planimetry (AlphaEase v5.5), and infarct size was expressed as a percentage of the total cross-sectional area of the heart, since total heart was subjected to ischemia.

Sod2-KO mice = Sod2-KO mice (lifespan, heart SDH activity, liver Oil Red O staining); format: in vivo, mouse
Source text: Mice deficient in mitochondrial Mn-Superoxide Dismutase (Sod2-KO) on a CD1-background were used. This genetic alteration leads to an adverse phenotype and the death of animals at an average of 8 days old. Mitochondrial superoxide dismutase is a free radical scavenging enzyme which transforms superoxide (highly reactive) into hydrogen peroxide (less reactive), that could then cross mitochondrial membranes and be detoxified by matrix and cytosolic anti-oxidant systems. The aim of this study was to test if AOL could rescue the Sod2-KO phenotype through its activity on IQ superoxide production.
After birth, pups were genotyped (3 day-old) and the litter size was reduced to 6 pups per cage. Animals were then treated (AOL in Kolliphor®—5 mg/kg) or not (Kolliphor® only, noted KOL below). […] Two studies were conducted on two different generations from the same parents: lifespan; and succinate dehydrogenase activity in heart (SDH) and Oil Red O staining in liver. Animals were weighed and injected (intra-peritoneal) daily.
Succinate dehydrogenase activity is a marker of superoxide in the mitochondrial matrix. Thus, a lack of SOD2 is associated with a decrease of SDH activity in heart. The aim of this experiment was to test whether or not AOL could restore SDH activity in KO mice.
However, the direct link between superoxide/hydrogen peroxide production and liver lipid accumulation is not established. The aim of the study was to test the potency of AOL to prevent liver lipid accumulation in Sod2-KO mice.
Animals were injected once a day from 3 days old until their death.
In this study, animals were treated daily (5 mg/kg) from day 3 to day 5. Heart and liver were harvested at day 6.

[3] = 5 mg/kg daily, day 3 to day 5, Oil Red O

Compound: COc1ccc(-c2cc(=S)ss2)cc1 [AOL, 5-(4-methoxyphenyl)-3H-1,2-dithiole-3-thione]
- GSIS increase as compared to the 11 mM glucose vehicle group [1]: 65-75%
- infarcted tissue rescued (TTC staining) ([2]; 120 min reperfusion): about 50%
- heart contractility (RPP) relative to control hearts ([2]; after 2 hours of reperfusion): about three times higher than control hearts
- SDH activity in heart of KO mice (Sod2-KO mice; 5 mg/kg daily, day 3 to day 5): only a very slight increase in SDH activity
- liver lipid droplets density in KO mice (Sod2-KO mice; [3]): lipid droplets density decreased
- liver total lipid area in KO mice (Sod2-KO mice; [3]): able to restore the total lipid area
- lifespan extension compared to untreated KO mice (Sod2-KO mice; 5 mg/kg i.p. daily from 3 days old): up to 2 days
- body weight and body weight gain of KO mice (Sod2-KO mice; 5 mg/kg i.p. daily, day 8 to 12): tends to alleviate this effect
